Key:
human recombinant PDE4D = target: T1, human recombinant PDE4D (Homo sapiens, UniProt Q08499); test: PDE4 inhibitory activity (cAMP hydrolysis, HitHunter cAMP II chemiluminescent kit); type: biochemical; details: 5 ng human recombinant PDE4D, 1 pmol cAMP, 30° C. for 30 minutes
T1 construct: purchased ABNOVA H00005144-P01
Experimental: The activity of a test compound to inhibit human PDE4 was evaluated in the manner mentioned below.
In the presence of a test compound (10^−7 to 10^−12 M), 1 pmol of cAMP was hydrolyzed through incubation with 5 ng of human recombinant PDE4D (ABNOVA's #H00005144-P01, Lot. FAK0050713Jb01, Taiwan) at 30° C. for 30 minutes. After the hydrolysis, the cAMP concentration was measured with a chemiluminescent kit, HitHunter cAMP II Assay Kit (by Amersham Bioscience).

[1] = tested on: TNF-α production from rat whole blood cells stimulated with LPS; test: TNF-α production-suppressing activity in LPS-stimulated rat whole blood (ELISA); type: cell-based; details: 37° C. for 5 hours
Experimental: The activity of a test compound to suppress TNF-α production from rat whole blood cells stimulated with LPS was evaluated in the manner mentioned below (J. Pharmacol. Exp. Ther., 302, 390-396, 2000).
Under anesthesia with ether, a proper amount of blood was taken out from a 10-week male SD rat (♂, 10-week old) through its abdominal vein into a tube with EDTA (1.6 mg/mL) therein. A test compound was dissolved in dimethyl sulfoxide to prepare its 10^−2 M solution, which was diluted before use. 80 μL of rat blood was dispensed into each well of a 96-well plate, then 10 μL of the test compound solution was added thereto, and incubated at 37° C. in 5% CO2 for 30 minutes. The test compound and the blood were well mixed, then 10 μL of LPS (100 μg/mL) was added thereto, and incubated at 37° C. in 5% CO2 for 5 hours. Further, 100 μL of PBS was added to each well, then the plate was centrifuged at 4000 rpm for 2 minutes to collect the supernatant, and this was frozen and stored at −80° C. until its use for analysis. The amount of TNF-α production was measured through ELISA. IC50 for TNF-α production-suppressing activity was calculated as the test compound concentration for 50% inhibition of TNF-α production.
As a control compound, the above-mentioned known compound (compound of general formula [A] in which R is a carboxyl group, cis-4-[4-(3,4-dimethoxyphenyl)-1-oxo-4a,5,8,8a-tetrahydro-1H-phthalazin-2-yl-methyl]benzoic acid (hereinafter referred to as control compound A)) was used.

TNCB-induced dermatitis = test: Dermatitis inhibitory effect in trinitrochlorobenzene (TNCB)-induced dermatitis model; type: in vivo, BALB/C mouse; details: 20 mg of 1.0% test compound/vaseline ointment on right pinna, five times in 1 week; pinna thickness 6 hours after last application
Experimental: The dermatitis inhibitory effect of a test compound was investigated, using a trinitrochlorobenzene (TNCB)-induced dermatitis model (J. Invest. Dermatol., 105, 749-755, 1995, J. Immuno., 159, 2484-2491, 1997).
20 μL of 1% (w/v) TNCB/acetone solution was applied dropwise to both sides of the right pinna of a BALB/C mouse (♂, 8-week old), whereby the mouse was sensitized. From day 7 after the sensitization with TNCB, 1% TNCB/acetone solution was applied to both sides of the right pinna of the mouse every other day at 3 times/week, for 3 weeks in total. TNCB was applied for 2 weeks so as to fully induce dermatitis in the mouse, and then 20 mg of 1.0% test compound/vaseline ointment was applied to both sides of the right pinna five times in total for 1 week. At 6 hours after the last application, the thickness of the right pinna of the mouse was measured, and the effect of the test compound on dermatitis was thus evaluated. The inhibitory rate was calculated according to the following formula.
Inhibitory Rate (%)={1−[mean thickness of inflamed pinna (right ear) of chemical-treated group−mean thickness of non-inflamed pinna (left ear) of the group]/[mean thickness of inflamed pinna (right ear) of diseased control group−mean thickness of non-inflamed pinna (left ear) of the group]}×100.

[2] = Metabolism by human liver microsome; type: in vitro ADME; details: NADPH producing system, 37° C., 10 minutes after start of incubation
Experimental: The metabolic characteristics of a test compound were investigated, using human liver microsome.
400 μL of EP buffer (0.25 mM EDTA, 0.25 M potassium phosphate buffer, pH 7.4), 50 μL of 20 mg/mL human liver microsome fraction (by KAC), 350 μl of pure water and 100 μL of 1×10^−4 M test compound were put into a 1.5 mL microtube, and preincubated at 37° C. for 5 minutes. 100 μL of an NADPH producing system (containing 20 mg of NADP+, 70 mg of G6P, 40 units of G6PDH, 20 mg of magnesium chloride hexahydrate in 1 mL of pure water) was added to it, and incubated. To 100 μL of the sample taken at 10 minutes after the start of the incubation, added was the same amount of acetonitrile, and the reaction was thereby stopped. […] 20 μL of the supernatant was led into a high-performance liquid chromatography (Shimadzu'sSPD-10A, LC-10AS, CTO-10A, C-R6A), and the peak area of the test compound at 320 nm was measured, using a C18 column (Cadenza, CD-C18, 75×4.6 mm). […] Under the condition, the peak area of the test compound was measured. The metabolic rate was calculated as follows: 100 μL of acetonitrile was added to 90 μL of the above pre-incubated solution, and then 10 μl of the NADPH producing system was added thereto, and the resulting solution was analyzed for the peak area of the test compound. Based on it, the metabolic rate in 10 minutes after the incubation was calculated.

[3] = Rattus norvegicus, Whole blood cell, 5 h

T1 sequence (Q08499 whole entry): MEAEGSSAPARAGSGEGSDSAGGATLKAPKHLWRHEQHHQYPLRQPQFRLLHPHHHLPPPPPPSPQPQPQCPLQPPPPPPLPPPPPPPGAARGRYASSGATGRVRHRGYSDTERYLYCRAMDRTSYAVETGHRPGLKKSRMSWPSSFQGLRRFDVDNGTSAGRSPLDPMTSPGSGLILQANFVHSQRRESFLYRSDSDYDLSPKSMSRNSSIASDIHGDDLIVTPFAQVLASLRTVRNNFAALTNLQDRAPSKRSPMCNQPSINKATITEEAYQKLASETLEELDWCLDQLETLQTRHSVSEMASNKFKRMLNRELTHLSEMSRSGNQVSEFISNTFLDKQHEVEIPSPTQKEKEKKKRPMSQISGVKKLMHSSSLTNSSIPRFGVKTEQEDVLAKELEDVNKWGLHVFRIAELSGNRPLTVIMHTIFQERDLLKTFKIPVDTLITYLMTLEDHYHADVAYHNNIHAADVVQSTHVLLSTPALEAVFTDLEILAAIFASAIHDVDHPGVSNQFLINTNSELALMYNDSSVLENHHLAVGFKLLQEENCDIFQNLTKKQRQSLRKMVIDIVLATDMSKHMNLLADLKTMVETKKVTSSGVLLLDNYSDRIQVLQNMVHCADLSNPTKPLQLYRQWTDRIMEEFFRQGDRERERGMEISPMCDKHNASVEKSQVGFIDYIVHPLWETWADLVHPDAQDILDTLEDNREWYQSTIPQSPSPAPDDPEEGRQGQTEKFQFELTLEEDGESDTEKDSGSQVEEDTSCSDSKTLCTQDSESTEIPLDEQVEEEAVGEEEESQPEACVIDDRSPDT

SMILES | IC50 (human recombinant PDE4D) [µM] | IC50 ([1]; Whole blood cell) [µM] | IC50 [1, 3] [µM] | Metabolic Rate (%) [2] [%] | IC50 ([1]; monomaleate) [µM] | Dermatitis Inhibitory Percentage (%) (TNCB-induced dermatitis)
COc1ccc(C2=NN(Cc3cccc(CN4CCOCC4)c3)C(=O)[C@H]3CC=CC[C@@H]23)cc1OC (relative stereo) [Example 10, cis-4-(3,4-Dimethoxyphenyl)-2-[3-(morpholin-4-ylmethyl)benzyl]-4a,5,8,8a-tetrahydro-2H-phthalazin-1-one] | 0.02 | 0.107 |  |  |  | 31.1
COc1ccc(C2=NN(Cc3ccc(CN4CCOCC4)cc3)C(=O)[C@H]3CCCC[C@@H]23)cc1OC (relative stereo) [Example 13, cis-4-(3,4-Dimethoxyphenyl)-2-[4-(morpholin-4-ylmethyl)benzyl]-4a,5,6,7,8,8a-hexahydro-2H-phthalazin-1-one] | 0.005 | 0.059 |  |  |  | 33.2
COc1ccc(C2=NN(Cc3ccc(Cn4ccnc4)cc3)C(=O)[C@H]3CC=CC[C@@H]23)cc1OC (relative stereo) [Example 9, cis-4-(3,4-Dimethoxyphenyl)-2-[4-(imidazol-1-ylmethyl)benzyl]-4a,5,8,8a-tetrahydro-2H-phthalazin-1-one] | 0.025 |  | 0.001 |  |  | 
COc1ccc(C2=NN(Cc3ccc(CN4CCNC(=O)C4)cc3)C(=O)[C@H]3CC=CC[C@@H]23)cc1OC (relative stereo) [Example 16, cis-(+)-4-(3,4-Dimethoxyphenyl)-2-[4-(3-oxopiperazin-1-ylmethyl)benzyl]-4a,5,8,8a-tetrahydro-2H-phthalazin-1-one] |  | 0.0049 |  |  |  | 
COc1ccc(C2=NN(Cc3ccc(CN4CCOCC4)cc3)C(=O)C3CC=CCC23)cc1OC (single isomer, unassigned) [Example 2-1, cis-(+)-4-(3,4-Dimethoxyphenyl)-2-[4-(morpholin-4-ylmethyl)benzyl]-4a,5,8,8a-tetrahydro-2H-phthalazin-1-one] |  | 0.0024 |  | 61.5 |  | 38.5
COc1ccc(C2=NN(Cc3cccc(CN4CCNC(=O)C4)c3)C(=O)[C@H]3CC=CC[C@@H]23)cc1OC (relative stereo) [Example 20, cis-(+)-4-(3,4-dimethoxyphenyl)-2-[3-(3-oxopiperazin-1-ylmethyl)benzyl]-4a,5,8,8a-tetrahydro-2H-phthalazin-1-one] |  | 0.019 |  |  |  | 
COc1ccc(C2=NN(Cc3ccc(CN4CCOCC4)cc3)C(=O)C3CC=CCC23)cc1OC (single isomer, unassigned) [Example 2-2, cis-(+)-4-(3,4-Dimethoxyphenyl)-2-[4-(morpholin-4-ylmethyl)benzyl]-4a,5,8,8a-tetrahydro-2H-phthalazin-1-one monomaleate] | 0.00079 |  |  |  | 0.0011 | 

The next lines start with results.

IC50 (human recombinant PDE4D) [µM] | IC50 ([1]; Whole blood cell) [µM] | IC50 [1, 3] [µM] | Metabolic Rate (%) [2] [%] | IC50 ([1]; monomaleate) [µM] | SMILES | Dermatitis Inhibitory Percentage (%) (TNCB-induced dermatitis)
0.0013 |  | 0.084 |  |  | COc1ccc(C2=NN(Cc3ccc(CN4CCC(=O)CC4)cc3)C(=O)[C@H]3CC=CC[C@@H]23)cc1OC (relative stereo) [Example 6, cis-4-(3,4-Dimethoxyphenyl)-2-[4-(4-oxopiperidin-1-ylmethyl)benzyl]-4a,5,8,8a-tetrahydro-2H-phthalazin-1-one] | 36.8
 | 0.012 |  |  |  | COc1ccc(C2=NN(Cc3ccc(C[N+]4([O-])CCOCC4)cc3)C(=O)[C@H]3CC=CC[C@@H]23)cc1OC (relative stereo) [Example 21, cis-(+)-4-{4-[4-(3,4-dimethoxyphenyl)-1-oxo-4a,5,8,8a-tetrahydro-1H-phthalazin-2-ylmethyl]benzyl}morpholine 4-oxide] | 
 | 0.012 |  |  |  | COc1ccc(C2=NN(Cc3ccc(N4CCOCC4)cc3)C(=O)[C@H]3CC=CC[C@@H]23)cc1OC (relative stereo) [Example 24, cis-4-(3,4-Dimethoxyphenyl)-2-(4-morpholin-4-ylbenzyl)-4a,5,8,8a-tetrahydro-2H-phthalazin-1-one] | 
0.063 |  | 0.0043 |  |  | COc1ccc(C2=NN(Cc3ccc(CN4CCOCC4)cc3)C(=O)C3CC=CCC23)cc1OC (stereo not drawn) [Example 1, cis-4-(3,4-Dimethoxyphenyl)-2-[4-(morpholin-4-ylmethyl)benzyl]-4a,5,8,8a-tetrahydro-2H-phthalazin-1-one] | 31.2
0.02 | 0.199 |  |  |  | COc1ccc(C2=NN(Cc3ccc(CN4CCC5(CC4)OCCO5)cc3)C(=O)[C@H]3CC=CC[C@@H]23)cc1OC (relative stereo) [Example 5, cis-4-(3,4-Dimethoxyphenyl)-2-[4-(1,4-dioxa-8-azaspiro[4,5]dec-8-ylmethyl)benzyl]-4a,5,8,8a-tetrahydro-2H-phthalazin-1-one] | 20.2
 | 133 |  | 35.2 |  | COc1ccc(C2=NN(Cc3ccc(C(=O)O)cc3)C(=O)[C@H]3CC=CC[C@@H]23)cc1OC (relative stereo) [control compound A, cis-4-[4-(3,4-dimethoxyphenyl)-1-oxo-4a,5,8,8a-tetrahydro-1H-phthalazin-2-yl-methyl]benzoic acid, reference compound] | 2.6
